Measurements reported in ChEMBL document CHEMBL1201862, “PubChem BioAssay data set” (2004).
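Cells were grown in 96-well plates and exposed to each compound for 48 hours at five concentrations; endpoints were interpolated linearly between bracketing concentrations, or set to the highest concentration if not reached. Abbreviation: GI50, concentration required for 50% inhibition of growth.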 The source made the active and inactive calls. Rule as the data show it: active = GI50 up to about 1.1 µM and inactive = higher.

Columns and labels:
Assay in all cases: NCI-60 cell line screen, 48 h
ACHN = system: ACHN
COLO 205 = system: COLO 205
DU-145 = system: DU-145
EKVX = system: EKVX
HOP-62 = system: HOP-62
KM12 = system: KM12
LOX IMVI = system: LOX IMVI
MDA-MB-231 = system: MDA-MB-231
MDA-MB-435 = system: MDA-MB-435
NCI/ADR-RES = system: NCI/ADR-RES
OVCAR-3 = system: OVCAR-3
OVCAR-4 = system: OVCAR-4
RXF 393 = system: RXF 393
SF-539 = system: SF-539
SK-MEL-2 = system: SK-MEL-2
SK-OV-3 = system: SK-OV-3
SNB-19 = system: SNB-19
UACC-62 = system: UACC-62
CAKI-1 = system: CAKI-1

SMILES | GI50 (ACHN) | GI50 (COLO 205) | GI50 (DU-145) | GI50 (EKVX) | GI50 (HOP-62) | GI50 (KM12) | GI50 (LOX IMVI) | GI50 (MDA-MB-231) | GI50 (MDA-MB-435) | GI50 (NCI/ADR-RES) | GI50 (OVCAR-3) | GI50 (OVCAR-4) | GI50 (RXF 393) | GI50 (SF-539) | GI50 (SK-MEL-2) | GI50 (SK-OV-3) | GI50 (SNB-19) | GI50 (UACC-62) | GI50 (CAKI-1)
COc1cccc2c1C(=O)c1c(O)c3c(c(O)c1C2=O)CC(O)(C(C)=O)CC3OC1OC(COC(C)=O)C(OC(C)=O)C(OC(C)=O)C1OC(C)=O (stereo unspecified) | 17.4 µM (inactive) | 79.4 µM (inactive) | 26.9 µM (inactive) | 0.116 µM (active) | 10.2 µM (inactive) | 52.7 µM (inactive) | 29.9 µM (inactive) | 17.7 µM (inactive) | 88.7 µM (inactive) | > 100 µM (inactive) | 14 µM (inactive) | 18 µM (inactive) | 0.269 µM (active) | 16.8 µM (inactive) | 55.7 µM (inactive) | 32.7 µM (inactive) | 16 µM (inactive) | 33.2 µM (inactive) | 
CN[C@@H](C)[C@H](NC)c1ccccc1 |  | > 100 µM (inactive) |  | > 100 µM (inactive) |  | > 100 µM (inactive) | > 100 µM (inactive) |  |  |  | > 100 µM (inactive) |  | > 100 µM (inactive) | > 100 µM (inactive) |  | > 100 µM (inactive) | > 100 µM (inactive) | > 100 µM (inactive) | > 100 µM (inactive)
[O-][S+](C(c1ccccc1)=P(c1ccccc1)(c1ccccc1)c1ccccc1)c1ccc(Cl)cc1 (stereo unspecified) | 26.4 µM (inactive) |  | 13.9 µM (inactive) | 27.3 µM (inactive) | 25.6 µM (inactive) | 14.2 µM (inactive) | 20.6 µM (inactive) | 19.3 µM (inactive) | 11.7 µM (inactive) | 66.7 µM (inactive) | 22.3 µM (inactive) | 17.1 µM (inactive) | 21.3 µM (inactive) | 60 µM (inactive) | 20.8 µM (inactive) | 24.4 µM (inactive) |  |  | 60.5 µM (inactive)
CC12CCC3(C1)[C@H](CC2=O)C[C@@H](OC(=O)c1ccccc1)C1C(C)(CO)CCC[C@@]13C (stereo partly specified) | 0.342 µM (active) | 4.35 µM (inactive) |  | 3.96 µM (inactive) | 5.41 µM (inactive) | 2.9 µM (inactive) | 2.17 µM (inactive) |  |  |  | 0.24 µM (active) | 1.44 µM (inactive) | 1.71 µM (inactive) | 6.08 µM (inactive) | 8.32 µM (inactive) | 17.1 µM (inactive) | 5.86 µM (inactive) | 0.0288 µM (active) | 0.861 µM (active)
COC1C(N(C)C)=C(c2ccccc2)C(=O)N2CCc3ccccc3C12 (stereo unspecified) | > 100 µM (inactive) | > 100 µM (inactive) | > 100 µM (inactive) | > 100 µM (inactive) | > 100 µM (inactive) | > 100 µM (inactive) | > 100 µM (inactive) | > 100 µM (inactive) | > 100 µM (inactive) | > 100 µM (inactive) |  | > 100 µM (inactive) | > 100 µM (inactive) | > 100 µM (inactive) | > 100 µM (inactive) | > 100 µM (inactive) | > 100 µM (inactive) | > 100 µM (inactive) | > 100 µM (inactive)
COC(=O)C(C(=O)C(=O)Nc1c(C)cccc1C)c1cnc2ccccc2n1 (stereo unspecified) | > 100 µM (inactive) | > 100 µM (inactive) |  | > 100 µM (inactive) |  | > 100 µM (inactive) | > 100 µM (inactive) |  |  |  |  | > 100 µM (inactive) | > 100 µM (inactive) |  | > 100 µM (inactive) | > 100 µM (inactive) | > 100 µM (inactive) | > 100 µM (inactive) | > 100 µM (inactive)
CCN(CC)CCSc1c2ccccc2nc2cc(NCC(=O)Nc3ccccc3-c3ccccc3NC(=O)CNc3ccc4c(SCCN(CC)CC)c5ccccc5nc4c3)ccc12 | > 100 µM (inactive) | > 35.2 µM (inactive) |  | > 100 µM (inactive) | > 100 µM (inactive) | > 74.8 µM (inactive) | > 76.6 µM (inactive) |  |  |  | > 100 µM (inactive) | > 88.9 µM (inactive) | > 100 µM (inactive) | > 100 µM (inactive) | > 100 µM (inactive) | > 100 µM (inactive) | > 100 µM (inactive) | > 100 µM (inactive) | > 100 µM (inactive)
C1=C2/CC[C@H](Sc3ccccc3)C2C2(CCCCC/1)OCCO2 (stereo partly specified) | 26.7 µM (inactive) | 21.6 µM (inactive) |  | 32.9 µM (inactive) | 19.3 µM (inactive) | 26.5 µM (inactive) | 15.2 µM (inactive) |  |  |  | 18.7 µM (inactive) |  | 15.7 µM (inactive) | 41.8 µM (inactive) | 15.8 µM (inactive) |  | > 100 µM (inactive) | 16.5 µM (inactive) | 
COC(=O)/C(=N\NC(=O)C[N+](C)(C)C)C(C(=O)OC)C(=O)C(=O)Nc1ccccc1C(N)=O (stereo unspecified) | > 100 µM (inactive) | > 100 µM (inactive) |  | > 100 µM (inactive) | > 100 µM (inactive) | > 100 µM (inactive) | > 100 µM (inactive) |  |  |  | > 100 µM (inactive) | > 100 µM (inactive) | > 100 µM (inactive) | > 100 µM (inactive) | > 100 µM (inactive) | > 100 µM (inactive) | > 100 µM (inactive) | > 100 µM (inactive) | > 100 µM (inactive)
CC(O[Si](c1ccccc1)(c1ccccc1)C(C)(C)C)[C@H](NC(=O)OC(C)(C)C)C(=O)O[Si](c1ccccc1)(c1ccccc1)C(C)(C)C (stereo partly specified) | 10.8 µM (inactive) | 13.2 µM (inactive) | 12.6 µM (inactive) | 11.9 µM (inactive) | 18.2 µM (inactive) | 9.91 µM (inactive) |  |  |  | 14.4 µM (inactive) |  | 1.46 µM (inactive) | 13 µM (inactive) |  |  | 16.3 µM (inactive) | 15.5 µM (inactive) |  | 12.4 µM (inactive)
Cc1cccc(C(C)(C)C)c1NC(=O)C(=O)C(C(=O)/C=C\c1ccccc1)C1OC(=O)c2ccccc21 (stereo unspecified) | > 100 µM (inactive) | > 100 µM (inactive) |  | > 100 µM (inactive) | > 100 µM (inactive) | > 100 µM (inactive) | > 100 µM (inactive) |  |  |  | > 100 µM (inactive) | > 100 µM (inactive) | > 100 µM (inactive) | > 100 µM (inactive) |  | > 100 µM (inactive) | > 100 µM (inactive) | > 100 µM (inactive) | > 100 µM (inactive)
O=c1[nH]c(=O)n(C2CC(O)C(O)C(CO)O2)cc1F (stereo unspecified) | > 100 µM (inactive) | > 100 µM (inactive) |  | > 100 µM (inactive) | > 100 µM (inactive) | > 100 µM (inactive) | > 100 µM (inactive) |  |  |  | > 100 µM (inactive) | > 100 µM (inactive) | > 100 µM (inactive) | > 100 µM (inactive) | > 100 µM (inactive) | > 100 µM (inactive) | > 100 µM (inactive) | > 100 µM (inactive) | 
CCCCCCCCCCCC(=O)OCC1OC(n2cc(F)c(=O)[nH]c2=O)C(NC(=O)OCc2ccccc2)C(OC(=O)CCCCCCCCCCC)C1O (stereo unspecified) | > 100 µM (inactive) | > 100 µM (inactive) |  | > 100 µM (inactive) | > 100 µM (inactive) | > 100 µM (inactive) | > 100 µM (inactive) |  |  |  | > 100 µM (inactive) | > 100 µM (inactive) | > 100 µM (inactive) | > 100 µM (inactive) | > 100 µM (inactive) | > 100 µM (inactive) | > 100 µM (inactive) | > 100 µM (inactive) | > 100 µM (inactive)
O=C(O)c1ccccc1NC(=O)C1CCCCC1 | > 100 µM (inactive) | > 100 µM (inactive) |  | > 100 µM (inactive) | > 100 µM (inactive) | > 100 µM (inactive) | > 100 µM (inactive) |  |  |  | > 100 µM (inactive) | > 100 µM (inactive) |  | > 100 µM (inactive) | > 100 µM (inactive) | > 100 µM (inactive) | > 100 µM (inactive) | > 100 µM (inactive) | 
COc1ccc2cc(C(=O)c3ccccc3C(=O)O)ccc2c1 | > 100 µM (inactive) | > 100 µM (inactive) |  | > 100 µM (inactive) | > 100 µM (inactive) | > 100 µM (inactive) | > 100 µM (inactive) |  |  |  | > 100 µM (inactive) | > 100 µM (inactive) | > 100 µM (inactive) |  | > 100 µM (inactive) | > 100 µM (inactive) | > 100 µM (inactive) | > 100 µM (inactive) | > 100 µM (inactive)
CC(=O)NC1C(=O)CC(c2ccccc2)N(C)C1c1ccccc1 (stereo unspecified) | > 100 µM (inactive) | > 100 µM (inactive) |  | > 100 µM (inactive) | > 100 µM (inactive) | > 100 µM (inactive) | 6.17 µM (inactive) |  |  |  | > 100 µM (inactive) | > 100 µM (inactive) | > 100 µM (inactive) | > 100 µM (inactive) | > 100 µM (inactive) | 26.3 µM (inactive) | > 100 µM (inactive) | > 100 µM (inactive) | > 100 µM (inactive)
COC(=O)c1c2c(cc3c1CC1(Cc4cc5c(c(C=O)c4C1)CCCC5)C3)CCCC2 (stereo unspecified) | 23.9 µM (inactive) | 20.7 µM (inactive) |  | 52.4 µM (inactive) | 31.8 µM (inactive) |  | > 100 µM (inactive) | 32.7 µM (inactive) | > 100 µM (inactive) | 94.6 µM (inactive) | 29.9 µM (inactive) | 34.1 µM (inactive) | 32.7 µM (inactive) | 74.8 µM (inactive) | 10.2 µM (inactive) | > 100 µM (inactive) |  | 23.5 µM (inactive) | 
CCc1cccc(C)c1NC(=O)CC(=O)NNC(N)=S | > 100 µM (inactive) | > 100 µM (inactive) |  | > 100 µM (inactive) | > 100 µM (inactive) | > 100 µM (inactive) | > 100 µM (inactive) |  |  |  | > 100 µM (inactive) | > 100 µM (inactive) | > 100 µM (inactive) |  |  | > 100 µM (inactive) | > 100 µM (inactive) |  | > 100 µM (inactive)
